# Data published in patent publication US12012467B2, “Small molecule DCN1 inhibitors and therapeutic methods using the same” (THE REGENTS OF THE UNIVERSITY OF MICHIGAN, priority 2017, dated 2024).
# Target: DCN1 (Homo sapiens (Human), UniProt Q96GG9)
# Assay: Competitive FP binding assay
# Conditions: bounds given in μM; read-out: Binding affinity to DCN1 (IC50)
# Procedure: Competitive FP Binding Assay
# The Fluorescence Polarization (FP) competitive binding assays were performed to accurately determine the binding affinities of our DCN1 inhibitors. […] Serial dilutions of proteins were mixed with 46 to a final volume of 200 μl in the assay buffer (100 mM phosphate buffer, pH=6.5, with 0.02% Tween-20 and 2% DMSO). Final probe concentration was 5 nM for both assays. Plates were incubated at room temperature for 30 minutes with gentle shaking to assure equilibrium.
# Pure proteins were derived from the same expression and purification protocols. Plasmids were transformed into Rosetta2 cells, the cells were grown in Terrific Broth at 37° C. to an O.D.600>1.0 and induced with 0.4 mM Isopropyl (3-D-1-thiogalactopyranoside overnight at 20° C. The pelleted cells were resuspended in lysis buffer containing 25 mM Tris-HCl, pH 7.5, 200 mM NaCl and protease inhibitors, sonicated and centrifuged at 34,000×g for 45 minutes to remove debris. Cleared lysate was incubated with Ni-NTA resin (Qiagen) prewashed with lysis buffer, for 1 hr at 4° C. The matrix was loaded into a column then washed with 25 mM Tris-HCl, pH 7.5, 200 mM NaCl and 10 mM imidazole. Protein was eluted with 25 mM Tris-HCl, pH 7.5, 200 mM NaCl and 300 mM imidazole, concentrated and applied to a Superdex 75 (GE Healthcare) column pre-equilibrated with 25 mM Tris pH 7.5, 200 mM NaCl and 1 mM DTT. For DCN2-5, the N-terminal His6 tag was removed prior to gel filtration. Tag removal was achieved through incubation with TEV protease during overnight dialysis against 25 mM Tris pH 7.5, 200 mM NaCl and 1 mM DTT and a second Ni-NTA column. DCN2-5 proteins were stored at −80° C. in 1 mg/mL fractions containing 5% glycerol. The uncleaved DCN1 protein was stored at −80° C. without glycerol.
# Chain of DCN1 (Q96GG9 58-259): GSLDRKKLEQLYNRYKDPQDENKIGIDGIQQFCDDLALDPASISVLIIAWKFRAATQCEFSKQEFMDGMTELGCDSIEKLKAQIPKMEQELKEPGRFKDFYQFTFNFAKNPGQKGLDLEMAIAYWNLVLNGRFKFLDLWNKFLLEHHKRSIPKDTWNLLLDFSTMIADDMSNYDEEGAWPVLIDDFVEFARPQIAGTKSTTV
row,IC50 [µM],SMILES
1,> 10,CC(C)C(=O)N[C@@H](Cc1nc2ccc(C(C)C)cc2s1)C(=O)NCCN [Example 95]
2,> 10,CC(C)c1ccc2nc(C[C@H](NC(=O)C3CC3)C(=O)NCCN)sc2c1 [Example 96]
3,> 10,CCC(=O)N[C@@H](Cc1nc(C)c(C(C)C)s1)C(=O)N[C@H](CN)Cc1ccccc1 [Example 99]
4,> 10,CCC(=O)N[C@@H](Cc1nc(C)c(-c2ccccc2Cl)s1)C(=O)N[C@H](CN)Cc1ccccc1 [Example 104]
5,> 10,CCC(=O)N[C@@H](Cc1nc(C)c(-c2ccc(C#N)cc2)s1)C(=O)N[C@H](CN)Cc1ccccc1 [Example 105]
6,> 10,CCC(=O)N[C@@H](Cc1nc(C)c(-c2ccc([N+](=O)[O-])cc2)s1)C(=O)N[C@H](CN)Cc1ccccc1 [Example 106]
7,> 10,CCC(=O)N[C@H](CN)Cc1nc2ccc(C(C)C)cc2s1 [Example 109]
8,> 5,CCC(=O)N[C@H](CNC(=O)C1(N)CCC(F)(F)CC1)Cc1nc2ccc(C(C)C)cc2s1 [Example 111]
9,> 10,"CCC(=O)N[C@H](Cc1nc2ccc(C(C)C)cc2s1)C(=O)N[C@@H](CN)C1CCCCC1 [Example 122, (R)—N—((R)-2-amino-1-cyclohexylethyl)-3-(6-isopropylbenzo[d]thiazol-2-yl)-2-propionamidopropanamide]"
10,> 10,CCC(=O)N[C@@H](Cc1ccccn1)C(=O)N[C@H](C(=O)N[C@@H](CCCCN)C(=O)NC(c1ccccc1)c1ccccc1)[C@@H](C)CC [Example 132]
11,> 10,CCC(=O)N[C@@H](Cc1cccnc1)C(=O)N[C@H](C(=O)N[C@@H](CCCCN)C(=O)NC(c1ccccc1)c1ccccc1)[C@@H](C)CC [Example 133]
12,> 10,CCC(=O)N[C@@H](Cc1cccc(C)n1)C(=O)N[C@H](C(=O)N[C@@H](CCCCN)C(=O)NC(c1ccccc1)c1ccccc1)[C@@H](C)CC [Example 134]
13,> 10,CCC(=O)N[C@@H](Cc1ccc(C)cn1)C(=O)N[C@H](C(=O)N[C@@H](CCCCN)C(=O)NC(c1ccccc1)c1ccccc1)[C@@H](C)CC [Example 135]
14,> 5,CCC(=O)N[C@@H](Cc1nc2ccccc2n1C)C(=O)N[C@H](C(=O)N[C@@H](CCCCN)C(=O)NC(c1ccccc1)c1ccccc1)[C@@H](C)CC [Example 136]

row,SMILES,IC50 [µM]
1,CCC(=O)N[C@@H](Cc1nc2ccc(C(C)C)cc2s1)C(=O)N[C@@H](CN)Cc1ccccc1 [Example 90],> 5

# Same assay, conditions: read-out: Binding affinity to DCN1 (IC50 (nM))
row,SMILES,IC50 [µM]
1,CCC(=O)N[C@@H](Cc1nc2ccc(C(C)C)cc2s1)C(=O)N[C@H](Cn1cc(CO)nn1)C1CCCCC1 [Example 83],0.656
2,CCC(=O)N[C@@H](Cc1nc2ccc(Cl)cc2s1)C(=O)N[C@H](CN)Cc1ccccc1 [Example 86],0.491
3,CCC(=O)N[C@@H](Cc1nc(C)c(-c2ccc(F)cc2)s1)C(=O)N[C@H](CN)Cc1ccccc1 [Example 100],2.22
4,CCC(=O)N[C@@H](Cc1nc(C)c(-c2ccccc2)s1)C(=O)N[C@H](CN)Cc1ccccc1 [Example 101],1.74
5,CCC(=O)N[C@@H](Cc1nc(C)c(-c2ccc(Cl)cc2)s1)C(=O)N[C@H](CN)Cc1ccccc1 [Example 102],1.28
6,CCC(=O)N[C@@H](Cc1nc(C)c(-c2cccc(Cl)c2)s1)C(=O)N[C@H](CN)C1CCCCC1 [Example 107],0.704
7,CCC(=O)N[C@@H](Cc1cn2cc(Cl)ccc2n1)C(=O)N[C@H](CN)Cc1ccccc1 [Example 108],4.17
8,CCC(=O)N[C@H](CNC(=O)C1(N)CCCCC1)Cc1nc2ccc(C(C)C)cc2s1 [Example 110],1.91
9,CCC(=O)N[C@H](CNC(=O)C1(N)CCOCC1)Cc1nc2ccc(C(C)C)cc2s1 [Example 112],5.06
10,CCC(=O)N[C@H](CNC(=O)C1(N)CCC1)Cc1nc2ccc(C(C)C)cc2s1 [Example 113],4.11
11,CCC(=O)N[C@H](CNC(=O)C1(N)CCCC1)Cc1nc2ccc(C(C)C)cc2s1 [Example 114],1.55
12,CCC(=O)N[C@H](CNC(=O)C1(N)CCCCCC1)Cc1nc2ccc(C(C)C)cc2s1 [Example 115],2.39
13,CCC(=O)N[C@H](CNC(=O)C1(N)CCCCCCC1)Cc1nc2ccc(C(C)C)cc2s1 [Example 116],2.2
14,CCC(=O)N[C@H](CNC(=O)C1(CN)CCCCC1)Cc1nc2ccc(C(C)C)cc2s1 [Example 117],0.875
15,CCC(=O)N[C@H](CNC(=O)[C@@H]1CCCCN1)Cc1nc2ccc(C(C)C)cc2s1 [Example 118],3.11
16,CCC(=O)N[C@@H](Cc1ccc2ccccc2c1)C(=O)N[C@H](C(=O)N[C@@H](CCCCN)C(=O)NC(c1ccc(Cl)cc1)c1ccc(Cl)cc1)[C@@H](C)CC [Example 129],0.748
17,CCC(=O)N[C@@H](Cc1ccc2ccccc2n1)C(=O)N[C@H](C(=O)N[C@@H](CCCCN)C(=O)NC(c1ccccc1)c1ccccc1)[C@@H](C)CC [Example 130],2.37
18,CCC(=O)N[C@@H](Cc1cc2ccccc2cn1)C(=O)N[C@H](C(=O)N[C@@H](CCCCN)C(=O)NC(c1ccccc1)c1ccccc1)[C@@H](C)CC [Example 131],2.61

# More lines, now with the values ahead:
row,IC50 [µM],SMILES
1,0.257,CCC(=O)N[C@@H](Cc1nc2ccc(C(C)C)cc2s1)C(=O)N[C@H](CNC(=O)c1c[nH]cn1)C1CCCCC1 [Example 67]
2,0.0666,CCC(=O)N[C@@H](Cc1nc2ccc(C(C)C)cc2s1)C(=O)N[C@H](CNC(=O)C1CNC1)C1CCCCC1 [Example 68]
3,0.0716,CCC(=O)N[C@@H](Cc1nc2ccc(C(C)C)cc2s1)C(=O)N[C@H](CNC(=O)C1CN(C)C1)C1CCCCC1 [Example 69]
4,0.0451,CCC(=O)N[C@@H](Cc1nc2ccc(C(C)C)cc2s1)C(=O)N[C@H](CNC(=O)C1CCN(CC)CC1)C1CCCCC1 [Example 70]
5,0.11,CCC(=O)N[C@@H](Cc1nc2ccc(C(C)C)cc2s1)C(=O)N[C@H](CNC(=O)C1CCN(C(C)C)CC1)C1CCCCC1 [Example 71]
6,0.0659,CCC(=O)N[C@@H](Cc1nc2ccc(C(C)C)cc2s1)C(=O)N[C@H](CNC(=O)C1CCN(CCO)CC1)C1CCCCC1 [Example 72]
7,0.112,CCC(=O)N[C@@H](Cc1nc2ccc(C(C)C)cc2s1)C(=O)N[C@H](CNC(=O)C1CCN(CCF)CC1)C1CCCCC1 [Example 74]
8,0.0756,CCC(=O)N[C@@H](Cc1nc2ccc(C(C)C)cc2s1)C(=O)N[C@H](CNC(=O)NC1CCN(C)CC1)C1CCCCC1 [Example 75]
9,0.0657,CCC(=O)N[C@@H](Cc1nc2ccc(C(C)C)cc2s1)C(=O)N[C@H](CNS(=O)(=O)C1CCN(C)CC1)C1CCCCC1 [Example 76]
10,0.189,CCC(=O)N[C@@H](Cc1nc2ccc(C(C)C)cc2s1)C(=O)N[C@H](CNc1ccncn1)C1CCCCC1 [Example 78]
11,0.0936,"CCC(=O)N[C@@H](Cc1nc2ccc(C(C)C)cc2s1)C(=O)N[C@H](CN(C)C)C1CCCCC1 [Example 79, (S)—N—((S)-1-cyclohexyl-2-(dimethylamino)ethyl)-3-(6-isopropylbenzo[d]thiazol-2-yl)-2-propionamidopropanamide]"
12,0.157,"CCC(=O)N[C@@H](Cc1nc2ccc(C(C)C)cc2s1)C(=O)N[C@H](CN1CCOCC1)C1CCCCC1 [Example 80, (S)—N—((S)-1-cyclohexyl-2-morpholinoethyl)-3-(6-isopropylbenzo[d]thiazol-2-yl)-2-propionamidopropanamide]"
13,0.127,"CCC(=O)N[C@@H](Cc1nc2ccc(C(C)C)cc2s1)C(=O)N[C@H](CO)C1CCCCC1 [Example 81, (S)—N—((S)-1-cyclohexyl-2-hydroxyethyl)-3-(6-isopropylbenzo[d]thiazol-2-yl)-2-propionamidopropanamide]"
14,0.243,CCC(=O)N[C@@H](Cc1nc2ccc(C(C)C)cc2s1)C(=O)N[C@H](Cn1cc(CN)nn1)C1CCCCC1 [Example 82]
15,0.242,CCC(=O)N[C@@H](Cc1nc2ccc(C(C)C)cc2s1)C(=O)NC(CSc1nncn1C)C1CCCCC1 (stereo partly drawn) [Example 84]
16,0.138,CCC(=O)N[C@@H](Cc1nc2ccc(C(C)C)cc2s1)C(=O)N[C@H](COCCN1CCOCC1)C1CCCCC1 [Example 85]
17,0.244,CCC(=O)N[C@@H](Cc1nc2ccc(Cl)cc2s1)C(=O)N[C@H](CNC(=O)CCN1CCOCC1)Cc1ccccc1 [Example 92]
18,0.0899,CCC(=O)N[C@@H](Cc1nc2ccc(C(C)C)cc2s1)C(=O)N[C@H](CNC(=O)CCN1CCOCC1)Cc1ccccc1 [Example 93]
19,0.264,CCC(=O)N[C@@H](Cc1nc(C)c(-c2cccc(Cl)c2)s1)C(=O)N[C@H](CN)Cc1ccccc1 [Example 103]
20,0.477,CCC(=O)N[C@H](CNC(=O)C1(N)CCCCC1)Cc1nc2ccc(Cl)cc2s1 [Example 119]
21,0.321 ± 0.032,CCC(=O)N[C@@H](Cc1ccc2ccccc2c1)C(=O)N[C@H](C(=O)N[C@@H](CCCCN)C(=O)NC(c1ccc(F)cc1)c1ccc(F)cc1)[C@@H](C)CC [Example 128]
